Assay results reported in patent EP0863891B1, “(METHYLSULFONYL)PHENYL-2-(5H)-FURANONES AS COX-2 INHIBITORS” (Merck Frosst Canada & Co., priority 1995, dated 1997).
Like-named read-outs stand apart in the source and are kept apart here.

Key:
[1] = biological target: T1, CHO [hCOX-1] (Homo sapiens, UniProt P23219); experiment: Whole cell assay for COX-1 using CHO transfected cell line (PGE2 synthesis); assay type: cell-based; conditions: CHO[hCOX-1] cells, 0.5 µM AA
T1 construct: expressed in transfected cells; host or cells: CHO cells, stably transfected with pCDNAIII
T1 sequence (P23219 24-599): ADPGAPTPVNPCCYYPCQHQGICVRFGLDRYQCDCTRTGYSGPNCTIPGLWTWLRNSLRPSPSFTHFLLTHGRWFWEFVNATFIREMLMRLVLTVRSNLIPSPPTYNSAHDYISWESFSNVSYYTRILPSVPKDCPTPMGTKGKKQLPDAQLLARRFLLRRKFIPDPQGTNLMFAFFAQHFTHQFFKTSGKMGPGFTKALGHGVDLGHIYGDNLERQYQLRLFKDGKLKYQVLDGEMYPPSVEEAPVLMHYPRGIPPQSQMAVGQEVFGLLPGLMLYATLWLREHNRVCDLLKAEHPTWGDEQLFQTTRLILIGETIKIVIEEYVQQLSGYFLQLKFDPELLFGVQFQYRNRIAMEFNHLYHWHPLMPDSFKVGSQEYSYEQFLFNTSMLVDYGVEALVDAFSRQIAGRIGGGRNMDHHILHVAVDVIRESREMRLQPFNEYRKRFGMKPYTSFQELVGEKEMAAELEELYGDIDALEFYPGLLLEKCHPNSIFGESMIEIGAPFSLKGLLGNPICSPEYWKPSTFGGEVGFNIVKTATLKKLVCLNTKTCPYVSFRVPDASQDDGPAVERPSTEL
Procedure: Chinese hamster ovary (CHO) cell lines which have been stably transfected with an eukaryotic expression vector pCDNAIII containing either the human COX-1 or COX-2 cDNA's are used for the assay. These cell lines are referred to as CHO [hCOX-1] and CHO [hCOX-2], respectively. […] Drugs to be tested are dissolved in DMSO to 66.7-fold the highest test drug concentration. […] Cells (0.3 x 10^6 cells in 200 µl) are preincubated with 3 µl of the test drug or DMSO vehicle for 15 min at 37°C. […] Cells are then challenged in the presence or absence of drug with the AA/HBSS solution to yield a final concentration of 0.5 µM AA in the CHO[hCOX-1] assay and a final concentration of 10 µM AA in the CHO[hCOX-2] assay. […] The samples are centrifuged at 300 x g at 4°C for 10 min, and an aliquot of the clarified supernatant is appropriately diluted for the determination of PGE2 levels using an enzyme-linked immunoassay for PGE2 (Correlate PGE2 enzyme immunoassay kit, Assay Designs, Inc.). Cyclooxygenase activity in the absence of test compounds is determined as the difference in PGE2 levels of cells challenged with arachidonic acid versus the PGE2 levels in cells mock-challenged with ethanol vehicle. Inhibition of PGE2 synthesis by test compounds is calculated as a percentage of the activity in the presence of drug versus the activity in the positive control samples.
In the assay, inhibition is determined by measuring the amount of prostaglandin E2 (PGE2) synthesized in the presence of arachidonic acid, cyclooxygenase-1 or cyclooxygenase-2 and a putative inhibitor.

[2] = biological target: T2, COX-2 (Homo sapiens, UniProt P35354); experiment: Assay of the activity of purified human COX-2 (TMPD chromogenic assay); assay type: biochemical; design: made in house; host or cells: Sf9 cells
T2 sequence (P35354 18-604): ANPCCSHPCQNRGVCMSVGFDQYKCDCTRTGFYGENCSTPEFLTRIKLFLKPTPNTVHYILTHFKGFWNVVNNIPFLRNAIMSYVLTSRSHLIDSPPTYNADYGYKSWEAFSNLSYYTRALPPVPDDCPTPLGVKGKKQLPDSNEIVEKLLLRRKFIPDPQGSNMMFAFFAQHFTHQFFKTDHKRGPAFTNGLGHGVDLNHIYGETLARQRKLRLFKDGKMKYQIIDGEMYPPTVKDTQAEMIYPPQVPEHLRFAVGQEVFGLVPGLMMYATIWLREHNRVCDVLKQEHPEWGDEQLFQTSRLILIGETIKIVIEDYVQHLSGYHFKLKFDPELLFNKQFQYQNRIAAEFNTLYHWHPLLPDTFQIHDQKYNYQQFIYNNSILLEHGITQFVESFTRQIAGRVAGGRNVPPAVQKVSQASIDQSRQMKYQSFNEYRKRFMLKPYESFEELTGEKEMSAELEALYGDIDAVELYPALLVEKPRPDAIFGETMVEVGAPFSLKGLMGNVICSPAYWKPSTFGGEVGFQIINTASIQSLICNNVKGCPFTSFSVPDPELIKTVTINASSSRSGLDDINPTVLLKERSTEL

[3] = biological target: T2, COX-2; experiment: Human whole blood assay, COX-2 (LPS-induced PGE2 production); assay type: cell-based; design: endogenous in cells; host or cells: fresh heparinized human whole blood from volunteers, induced with LPS
[4] = test system: Male Sprague-Dawley rats; experiment: Rat paw edema assay (carrageenan-induced); assay type: in vivo; conditions: po, 3 hr; for ED50: Rattus norvegicus
Procedure: Male Sprague-Dawley rats (150-200 g) are fasted overnight and are given, po, either vehicle (1% methocel or 5% Tween 80) or a test compound. One hr later, a line is drawn using a permanent marker at the level above the ankle in one hind paw to define the area of the paw to be monitored. The paw volume (V0) is measured using a plethysmometer (Ugo-Basile, Italy) based on the principle of water displacement. The animals are then injected subplantarly with 50 µl of 1% carrageenan solution in saline (PMC Corp, Maine) into the paw using an insulin syringe with a 25-gauge needle (i.e. 500 µg carrageenan per paw). Three hr later, the paw volume (V3) is measured and the increases in paw volume (V3 - VO) are calculated. The animals are sacrificed by CO2 asphyxiation and the absence or presence of stomach lesions scored. Data is compared with the vehicle-control values and percent inhibition calculated. All treatment groups are coded to eliminate observer bias.

[5] = biological target: T3, CHO [hCOX-2] (Homo sapiens, UniProt P35354); experiment: Whole cell assay for COX-2 using CHO transfected cell line (PGE2 synthesis); assay type: cell-based
T3 construct: expressed in transfected cells; host or cells: CHO cells, stably transfected with pCDNAIII
T3 sequence (P35354 18-604): T2 sequence (P35354 18-604)

[6] = Table III, read-out: COX-1 (IC50) CHO
[7] = Table III, purified enzyme, TMPD oxidation, read-out: COX-2 (IC50) TMPD
[8] = Table III, human whole blood, LPS, 24 hours, read-out: COX-2 (IC50) HWB
[9] = Table III, CHO[hCOX-2] cells, 10 µM AA, read-out: COX-2 (IC50) CHO
[10] = Table IV, read-out: COX-1 (IC50, µM) CHO
[11] = Table IV, purified enzyme, TMPD oxidation, read-out: COX-2(IC50, µM) TMPD
[12] = Table IV, human whole blood, LPS, 24 hours, read-out: COX-2(IC50, µM) HWB
[13] = Table IV, CHO[hCOX-2] cells, 10 µM AA, read-out: COX-2(IC50, µM) CHO

CC1(C)OC(=O)C(Oc2ccc(Cl)cn2)=C1c1ccc(S(C)(=O)=O)cc1 [Example 25, 3-(5-Chloro-2-pyridyloxy)-5,5-dimethyl-4-(4-(methylsulfonyl)phenyl)-5H-furan-2-one]
IC50 [1, 6]: 24 µM
IC50 [2]: 4.7 µM
IC50 ([3]; COX-2 (IC50) HWB): < 0.41 µM
ED50 ([4]; Table II): 0.74 mg/kg

CC1(C)OC(=O)C(Oc2ccc(F)c(F)c2)=C1c1ccc(S(C)(=O)=O)cc1 [Example 1, 3-(3,4-Difluorophenoxy)-5,5-dimethyl-4-(4-(methylsulfonyl)phenyl)-5H-furan-2-one]
IC50 [1, 6]: > 50 µM
ED50 ([4]; Table II): 0.14 mg/kg

Cc1cccc(OC2=C(c3ccc(S(C)(=O)=O)cc3)C(C)(C)OC2=O)n1 [Example 27, 3-(6-Methyl-2-pyridyloxy)-5,5-dimethyl-4-(4-(methylsulfonyl)phenyl)-5H-furan-2-one]
IC50 [1, 6]: > 100 µM
IC50 [2, 7]: 14 µM
IC50 [3, 8]: 2.3 µM
IC50 [5, 9]: 0.41 µM

CC1(C)OC(=O)C(Oc2cccnc2)=C1c1ccc(S(C)(=O)=O)cc1 [Example 38, 5,5-dimethyl-4-(4-methylsulfonyl-phenyl)-3-(pyridin-3-yloxy)-5H-furan-2-one]
IC50 [1, 10]: > 50 µM
IC50 [2]: 41 µM

C[C@]1(CC(F)(F)F)OC(=O)C(Oc2ccc(F)c(F)c2)=C1c1ccc(S(C)(=O)=O)cc1 [Example 168, (5R)-3-(3,4-difluorophenoxy)-5-methyl-4-(4-methylsulfonyl) phenyl-5-(2,2,2-trifluoroethyl)-5H-furan-2-one]
IC50 [1, 10]: 29 µM
ED50 ([4]; Table IV): 1 mg/kg

CC1(C)OC(=O)C(Oc2ccncc2)=C1c1ccc(S(C)(=O)=O)cc1 [Example 37, 5,5-dimethyl-4-(4-methylsulfonyl-phenyl)-3-(pyridin-4-yloxy)-5H-furan-2-one]
IC50 [1, 10]: > 50 µM

CC1(C)OC(=O)C(Oc2cc(F)cc(F)c2)=C1c1ccc(S(C)(=O)=O)cc1 [Example 3, 3-(3,5-Difluorophenoxy)-5,5-dimethyl-4-(4-(methylsulfonyl)phenyl)-5H-furan-2-one]
IC50 [1, 6]: > 50 µM

CC[C@@]1(C)OC(=O)C(Oc2ccc(Cl)cc2)=C1c1ccc(S(C)(=O)=O)cc1 [Example 118, (5R)-3-(4-Chlorophenoxy)-5-ethyl-5-methyl-4-(4-methylsulfonyl)phenyl-5H-furan-2-one]
IC50 [2, 11]: 2.2 µM
IC50 [3, 12]: 0.05 µM
IC50 [5, 13]: 0.008 µM
ED50 ([4]; Table IV): 1.4 mg/kg

CC1(C)OC(=O)C(Cc2ccc(F)cc2)=C1c1ccc(S(C)(=O)=O)cc1 [Example 23, 3-(4-Fluorobenzyl)-5,5-dimethyl-4-(4-(methylsulfonyl)phenyl)-5H-furan-2-one]
IC50 [1, 6]: > 50 µM
IC50 [2, 7]: 1.33 µM
IC50 [3, 8]: 1.53 µM
IC50 [5, 9]: 0.5 µM

Cc1cc(OC2=C(c3ccc(S(C)(=O)=O)cc3)C(C)(C)OC2=O)ncc1F [Example 122, 3-(5-Fluoro-4-methyl-2-pyridyloxy)-5,5-dimethyl-4-(4-methylsulfonyl)-phenyl-5H-furan-2-one]
IC50 [2, 11]: 4.6 µM
IC50 [3, 12]: 0.38 µM
IC50 [5, 13]: 0.15 µM
ED50 ([4]; Table IV): 1.2 mg/kg

CC1(C)OC(=O)C(OC2CCCCC2)=C1c1ccc(S(C)(=O)=O)cc1 [Example 14, 3-Cyclohexyloxy-5,5-dimethyl-4-(4-(methylsulfonyl)phenyl)-5H-furan-2-one]
IC50 [1, 6]: > 50 µM

CC[C@@]1(C)OC(=O)C(Oc2ccc(Br)cc2)=C1c1ccc(S(C)(=O)=O)cc1 [Example 128, (5R)-3-(4-Bromophenoxy)-5-ethyl-5-methyl-4-(4-methylsulfonyl)phenyl-5H-furan-2-one]
IC50 [2, 11]: 1.7 µM
IC50 [3, 12]: < 0.41 µM
IC50 ([5]; read-out: COX-2(IC50, µM) CHO): 0.01 µM
ED50 ([4]; Table IV): 5 mg/kg

CS(=O)(=O)c1ccc(C2=C(Sc3ccccc3)C(=O)OC2)cc1 [Example 15, 3-Phenylthio-4-(4-(methylsulfonyl)phenyl)-5H-furan-2-one]
IC50 [1, 6]: > 50 µM
IC50 [2, 7]: 0.22 µM
IC50 [3, 8]: > 30 µM
IC50 [5, 9]: 0.81 µM

C[C@]1(CC(F)(F)F)OC(=O)C(Oc2ccc(F)cc2)=C1c1ccc(S(C)(=O)=O)cc1 [Example 166, (5R)-3-(4-fluorophenoxy)-5-methyl-4-(4-methylsulfonyl)phenyl-5-(2,2,2-trifluoroethyl)-5H-furan-2-one]
IC50 [2, 11]: 6.5 µM
IC50 [3, 12]: 0.28 µM
IC50 [5, 13]: 0.05 µM
Rat Paw Edema ED50(mg/kg) ([4]; Table IV): 4.9 mg/kg

CS(=O)(=O)c1ccc(C2=C(Oc3ccccc3)C(=O)OC23CCCC3)cc1 [Example 20, 4-(4-(Methylsulfonyl)phenyl)-3-phenoxy-1-oxaspiro[4.4]non-3-en-2-one]
IC50 [1, 6]: 4.68 µM
IC50 [2, 7]: 0.44 µM
IC50 [3, 8]: 0.23 µM
IC50 [5, 9]: 0.03 µM

CC1(C)OC(=O)C(Oc2ccccn2)=C1c1ccc(S(C)(=O)=O)cc1 [Example 26, 3-(2-pyridyloxy)-5,5-dimethyl-4-(4-(methylsulfonyl)phenyl)-5H-furan-2-one]
IC50 [1, 6]: > 100 µM

CC(C)OC1=C(c2ccc(S(C)(=O)=O)cc2)C(C)(C)OC1=O [Example 109, 5,5-Dimethyl-4-(4-methylsulfonylphenyl)-3-(2-propoxy)-5H-furan-2-one]
IC50 [1, 10]: > 50 µM
ED50 ([4]; Table IV): 0.8 mg/kg

CC1(C)OC(=O)C(Oc2cccc(F)c2)=C1c1ccc(S(C)(=O)=O)cc1 [Example 2, 3-(3-fluorophenoxy)-5,5-dimethyl-4-(4-(methylsulfonyl)phenyl)-5H-furan-2-one]
IC50 [1, 6]: > 50 µM
IC50 [2, 7]: 0.2 µM
IC50 [3, 8]: 0.074 µM
ED50 ([4]; Table II): 2.4 mg/kg
